Results: US6346260B1, “Microbicidal active ingredients” (Ciba Specialty Chemicals Corporation, priority 1999, dated 2002)

Key:
Assay type in all cases: cell-based
[1] = test system: Staphylococcus aureus ATCC 9144; test: MIC in microtitre plates, Staphylococcus aureus; conditions: ATCC9144, Table 1, 48 hours at 37° C., ≦20% growth
Procedure: (§1) Determination of Antimicrobial Activity in Accordance with the Microtitre Plate Method Determination of the Minimum Inhibitory Concentration (MIC value) in Microtitre Plates casein-soybean flour-peptone bouillon for the preparation of the precultures of the test bacteria and yeast. Staphylococcus aureus ATCC 9144 The test substances are predissolved in dimethyl sulfoxide (DMSO) and tested in a dilution series of 1:2. Bacteria and yeast are cultured overnight in CASO bouillon, the mould on mycological slant agar and rinsed off with 10 ml of 0.85% sodium chloride solution (+0.1% TritonX-100). All test organisms are adjusted to an organism count of 1-5*10^6 CFU/ml with 0.85% sodium chloride solution. The test substances are prepipetted into microtitre plates in an amount of 8 μl per well. Previously diluted test organism suspensions are diluted 1:100 in CASO bouillon (bacteria and yeast) and Sabouraud 2% glucose bouillon (mould) and added to the test substances in an amount of 192 μl per well. The test batches are incubated for 48 hours at 37° C. (bacteria and yeast) or for 5 days at 28° C. (mould). After incubation, the growth is determined by reference to the turbidity of the test batches (optical density) at 620 nm in a microplate reader. […]

[2] = test system: Aspergillus niger ATCC 6275; test: MIC in microtitre plates, Aspergillus niger; conditions: Aspergillus niger, ATCC6275, 120 h; Table 1; ATCC 6275; 5 days at 28° C.; ≦20% growth; read-out: MIC Aspergillus niger
Procedure: Determination of Antimicrobial Activity in Accordance with the Microtitre Plate Method Determination of the Minimum Inhibitory Concentration (MIC value) in Microtitre Plates Mycological slant agar for the preculture of moulds. Aspergillus niger ATCC 6275 The test substances are predissolved in dimethyl sulfoxide (DMSO) and tested in a dilution series of 1:2. Bacteria and yeast are cultured overnight in CASO bouillon, the mould on mycological slant agar and rinsed off with 10 ml of 0.85% sodium chloride solution (+0.1% TritonX-100). All test organisms are adjusted to an organism count of 1-5*10^6 CFU/ml with 0.85% sodium chloride solution. The test substances are prepipetted into microtitre plates in an amount of 8 μl per well. Previously diluted test organism suspensions are diluted 1:100 in CASO bouillon (bacteria and yeast) and Sabouraud 2% glucose bouillon (mould) and added to the test substances in an amount of 192 μl per well. The test batches are incubated for 48 hours at 37° C. (bacteria and yeast) or for 5 days at 28° C. (mould). After incubation, the growth is determined by reference to the turbidity of the test batches (optical density) at 620 nm in a microplate reader. The minimum inhibitory concentration (MIC value) is the concentration of substance at which (compared with the growth of the control) an appreciable inhibition of the growth (≦20% growth) of the test organisms is ascertained. One microtitre plate is used for each test organism and substance concentration. All substances are tested in duplicate.

[3] = test system: Rhizopus stolonifer DSM 63011; test: MIC in microtitre plates, Rhizopus stolonifer; conditions: DSM63011, 120 h, Table 1, 5 days at 28° C., ≦20% growth
Procedure: as §1, with “Mycological slant agar” for “casein-soybean flour-peptone bouillon”, “preculture” for “preparation”, “moulds. Rhizopus stolonifer DSM 63011” for “the precultures of the test bacteria and yeast. Staphylococcus aureus ATCC 9144”

[4] = test system: Penicillium expansum ATCC 36200; test: MIC in microtitre plates, Penicillium expansum; conditions: ATCC36200, 120 h, Table 1, 5 days at 28° C., ≦20% growth
Procedure: as §1, with “Mycological slant agar” for “casein-soybean flour-peptone bouillon”, “preculture” for “preparation”, “moulds. Penicillium expansum” for “the precultures of the test bacteria and yeast. Staphylococcus aureus”, “36200” for “9144”

MIC [1]: 100 to 500 µg/mL
MIC [2]: 100 µg/mL
MIC [3]: 50 µg/mL
MIC [4]: 100 µg/mL
SMILES: O=C(CC(=O)c1ccccc1O)c1ccco1 [Compound of formula (101)]
